Data: US10377719B2, “Trypanosomes inhibitors” (Hoffmann-La Roche Inc., priority 2015, dated 2019)

The compounds below were run on Trypanosoma brucei rhodesiense STIB900 (assay: Activity against Trypanosoma brucei rhodesiense STIB900 (Alamar Blue assay)). Conditions: Trypanosoma brucei, 70 h, bloodstream forms of T. b. rhodesiense STIB 900, 70 h incubation.
Format: cell-based
Description: Activity Against Trypanosoma brucei Rhodesiense STIB900
This stock was isolated in 1982 from a human patient in Tanzania and after several mouse passages cloned and adapted to axenic culture conditions (Baltz, T., D. Baltz, C. Giroud, and J. Crockett. 1985, Cultivation in a semi-defined medium of animal infective forms of Trypanosoma brucei, T. equiperdum, T. evansi, T. rhodesiense and T. gambiense. EMBO Journal 4:1273-1277). Minimum Essential Medium (50 μl) supplemented with 25 mM HEPES, 1 g/l additional glucose, 1% MEM non-essential amino acids (100×), 0.2 mM 2-mercaptoethanol, 1 mM Na-pyruvate and 15% heat inactivated horse serum was added to each well of a 96-well microtiter plate. Serial drug dilutions of eleven 3-fold dilution steps covering a range from […] were prepared. Then 4×10^3 bloodstream forms of T. b. rhodesiense STIB 900 in 50 μl was added to each well and the plate incubated at 37° C. under a 5% CO2 atmosphere for 70 h. 10 μl Alamar Blue (resazurin, 12.5 mg in 100 ml double-distilled water) was then added to each well and incubation continued for a further 2-4 h (Räz, B., M. Iten, Y. Grether-Buhler, R. Kaminsky, and R. Brun. 1997, The Alamar Blue assay to determine drug sensitivity of African trypanosomes (T.b. rhodesiense and T.b. gambiense) in vitro. Acta Trop 68:139-47). Then the plates were read with a Spectramax Gemini XS microplate fluorometer (Molecular Devices Cooperation, Sunnyvale, Calif., USA) using an excitation wave length of 536 nm and an emission wave length of 588 nm. The IC50 values were calculated by linear regression (Huber, W. Koella, J. C. 1993, A comparison of the three methods of estimating EC50 in studies of drug resistance of malaria parasites. Acta Trop. 55, 257-261) from the sigmoidal dose inhibition curves using SoftmaxPro software (Molecular Devices Cooperation, Sunnyvale, Calif., USA). Melarsoprol is used as control.

| IC50 | Structure (SMILES) |
| --- | --- |
| 0.001 µM | N#CC1(NC(=O)[C@H](Cc2ccc(OC(F)(F)F)c(Cl)c2)NC(=O)c2cnn(-c3cccnc3)n2)CC1 [Example 26, N-[(2S)-3-[3-chloro-4-(trifluoromethoxy)phenyl]-1-[(1-cyanocyclopropyl)amino]-1-oxopropan-2-yl]-2-pyridin-3-yltriazole-4-carboxamide] |
| 0.516 µM | N#CC1(NC(=O)[C@H](Cc2ccccc2)NC(=O)c2cnn(-c3ccc(F)cc3)n2)CC1 [Example 27, N-[(2S)-1-[(1-cyanocyclopropyl)amino]-1-oxo-3-phenylpropan-2-yl]-2-(4-fluorophenyl)triazole-4-carboxamide] |
| 0.19 µM | N#CC1(NC(=O)[C@H](Cc2ccc(OCC3CC3)c(Cl)c2)NC(=O)c2cnn(-c3ccc(F)cc3)n2)CC1 [Example 28, N-[(2S)-3-[3-chloro-4-(cyclopropylmethoxy)phenyl]-1-[(1-cyanocyclopropyl)amino]-1-oxopropan-2-yl]-2-(4-fluorophenyl)triazole-4-carboxamide] |
| 0.007 µM | N#CC1(NC(=O)[C@H](Cc2ccc(Cl)c(Cl)c2)NC(=O)c2cnn(-c3ccc(F)cc3)n2)CC1 [Example 29, N-[(2S)-1-[(1-cyanocyclopropyl)amino]-3-(3,4-dichlorophenyl)-1-oxopropan-2-yl]-2-(4-fluorophenyl)triazole-4-carboxamide] |
| 0.005 µM | N#CC1(NC(=O)[C@H](Cc2ccc(OC(F)(F)F)c(Cl)c2)NC(=O)c2cnn(-c3ccc(F)nc3)n2)CC1 [Example 30, N-[(2S)-3-[3-chloro-4-(trifluoromethoxy)phenyl]-1-[(1-cyanocyclopropyl)amino]-1-oxopropan-2-yl]-2-(6-fluoropyridin-3-yl)triazole-4-carboxamide] |
| 0.019 µM | N#CC1(NC(=O)[C@H](Cc2ccc(OCc3ccccc3)cc2)NC(=O)c2cnn(-c3ccc(F)cc3)n2)CC1 [Example 31, N-[(2S)-1-[(1-cyanocyclopropyl)amino]-1-oxo-3-(4-phenylmethoxyphenyl)propan-2-yl]-2-(4-fluorophenyl)triazole-4-carboxamide] |
| 2.23 µM | CC(C)C[C@H](NC(=O)c1cnn(-c2ccc(F)cc2)n1)C(=O)NC1(C#N)CC1 [Example 32, N-[(2S)-1-[(1-cyanocyclopropyl)amino]-4-methyl-1-oxopentan-2-yl]-2-(4-fluorophenyl)triazole-4-carboxamide] |
| 0.004 µM | CC(C)n1ncc(C(=O)N[C@@H](Cc2ccc(OC(F)(F)F)c(Cl)c2)C(=O)NC2(C#N)CC2)n1 [Example 33, N-[(2S)-3-[3-chloro-4-(trifluoromethoxy)phenyl]-1-[(1-cyanocyclopropyl)amino]-1-oxopropan-2-yl]-2-propan-2-yltriazole-4-carboxamide] |
| 0.04 µM | Cn1ncc(C(=O)N[C@@H](Cc2ccc(OC(F)(F)F)c(Cl)c2)C(=O)NC2(C#N)CC2)n1 [Example 34, N-[(2S)-3-[3-chloro-4-(trifluoromethoxy)phenyl]-1-[(1-cyanocyclopropyl)amino]-1-oxopropan-2-yl]-2-methyltriazole-4-carboxamide] |
| 0.028 µM | N#CC1(NC(=O)[C@H](Cc2ccc(OC(F)(F)F)c(Cl)c2)NC(=O)c2cnn(-c3ccc(Br)cc3)n2)CC1 [Example 35, 2-(4-bromophenyl)-N-[(2S)-3-[3-chloro-4-(trifluoromethoxy)phenyl]-1-[(1-cyanocyclopropyl)amino]-1-oxopropan-2-yl]triazole-4-carboxamide] |
| 0.065 µM | COCCOc1ccc(C[C@H](NC(=O)c2cnn(-c3ccc(F)cc3)n2)C(=O)NC2(C#N)CC2)cc1Cl [Example 36, N-[(2S)-3-[3-chloro-4-(2-methoxyethoxy)phenyl]-1-[(1-cyanocyclopropyl)amino]-1-oxopropan-2-yl]-2-(4-fluorophenyl)triazole-4-carboxamide] |
| 0.004 µM | CC(C)(C)n1ncc(C(=O)N[C@@H](Cc2ccc(OC(F)(F)F)c(Cl)c2)C(=O)NC2(C#N)CC2)n1 [Example 37, 2-tert-butyl-N-[(2S)-3-[3-chloro-4-(trifluoromethoxy)phenyl]-1-[(1-cyanocyclopropyl)amino]-1-oxopropan-2-yl]triazole-4-carboxamide] |
